According to ChEMBL document CHEMBL1255316, “A peptide with a ProGln C terminus in the human saliva peptidome exerts bactericidal activity against Propionibacterium acnes” (Antimicrob Agents Chemother, 2008):
Activity calls are given as the source filed them. No cut-off for these calls is given here. Residues, ends and D or L forms follow the SMILES beside them.

Assays:
Cell membrane [1] = assay: Binding affinity to membrane of Propionibacterium acnes ATCC 6919 at 10 uM after 1 hr by fluorescence microscopy under anaerobic condition; format: functional; conditions: Cutibacterium acnes, Plasma membrane
Porphyromonas gingivalis = assay: Binding affinity to membrane of Porphyromonas gingivalis ATCC 33277 at 10 uM after 1 hr by fluorescence microscopy under anaerobic condition; format: functional
Cell membrane [2] = assay: Binding affinity to membrane of Propionibacterium acnes ATCC 6919 at 1 uM after 1 hr by fluorescence microscopy under anaerobic condition; format: functional; conditions: Cutibacterium acnes, Plasma membrane
Cutibacterium acnes [3] = assay: Antibacterial activity against Propionibacterium acnes assessed as attenuation of colonization at 1 uM incubated with compound for 3 hrs measured after 2 days; format: functional, organism-based
Cutibacterium acnes [4] = assay: Antibacterial activity against Propionibacterium acnes assessed as attenuation of colonization at 100 uM incubated with compound for 3 hrs measured after 2 days; format: functional, organism-based
Cutibacterium acnes [5] = assay: Antibacterial activity against Propionibacterium acnes assessed as attenuation of colonization at 10 uM incubated with compound for 3 hrs measured after 2 days; format: functional, organism-based

SMILES	Activity (Cell membrane [1])	Activity (Porphyromonas gingivalis)	Activity (Cell membrane [2])	Activity (Cutibacterium acnes [3])	Activity (Cutibacterium acnes [4])	Activity (Cutibacterium acnes [5])
N=C(N)NCCC[C@H](NC(=O)[C@H](CCCCN)NC(=O)CNC(=O)[C@@H](N)CS)C(=O)N[C@@H](CCCCN)C(=O)O (H-CGKRK-OH)	inactive					
N=C(N)NCCC[C@H](NC(=O)CNC(=O)CNC(=O)[C@H](CCC(N)=O)NC(=O)[C@@H]1CCCN1C(=O)[C@@H]1CCCN1C(=O)[C@@H]1CCCN1C(=O)CN)C(=O)N1CCC[C@H]1C(=O)N[C@@H](CCC(N)=O)C(=O)O (H-GPPPQGGRPQ-OH)	Active	inactive	Active	Active	Active	Active
